In US6727288B2, “Method for treating bone fracture” (Juneng Industry Co., Ltd., priority 2001, dated 2004):
Marks after values point to notes of the source that are not given here.

Columns and labels:
osteoblasts (OB2) [1] = test: Osteoblast (OB2) proliferation, MTT method; type: cell-based, SD rat; conditions: for A570 (X ± SD): 72 hours, MTT, n = 4
Method: (§1) 1) Sampling: after a newborn (within 24 hours) SD rat was disinfected, the calvaria were excised under sterilization conditions. The calvaria were predigested by 0.25% trypsin for 10-15 minutes firstly, then oscillated and digested by 0.1% collagenase II at 37° C. for 60 minutes. The cells were collected by centrifugation at 1000 rpm.
(§2) 2) Cell culture: The isolated cells were inoculated into culture flask at a concentration of 1×10^4/cm^2, wherein the culture solution is 10% of NCS-MEM. The cells were cultured in an incubator with 5% CO2 at 37° C., then passaged until half confluence. The second generation of secondary cells (OB2) were tested for pharmacodynamics.
(§3) 3) Medicines: Each test medicine was formulated at a concentration of 0.1 mol/L, and sterilized by high pressure for later use.
(§4) 2.24 g of calcium gluconate was dissolved in 50 ml of deionized water at room temperature. The control group was deionized water.
OB2 were inoculated into 24 well COSTOR culture plate at a density of 6×10^3 per well. 24 hours later, the above culture solution was replaced by culture solution containing varying concentrations of medicines ranging from 10^−9 to 10^−3 mol/L. 72 hours after adding medicines, the cells were tested through Labsystems Multiskan MS (Finland) )ELISA analyzer by MTT method. OD value at 570 nm was used to reflect cell proliferation.

[2] = system: ALP activity of osteoblast (OB2); test: ALP activity of OB2 cell lysates, para-nitrobenzene phosphate method; type: cell-based, SD rat; conditions: 10^−3 mol/L; for ALP activity of osteoblast: n = 4
Method: as §1, §2, §3, §4
OB2 was inoculated into 24 well COSTOR culture plate at a density of 2×10^4 per well. 24 hours later, the above culture solution was replaced by medium containing medicines. Then the culture solution was changed every 48 hours until confluence of cells was reached. ALP activity of cell lysates was measured by para-nitrobenzene phosphate method. Content of protein in cell lysates was measured by Coomassie brilliant blue method.

osteoblasts (OB2) [3] = test: Mineralization function of OB2, alizarin red nodule count; type: cell-based, SD rat; conditions: for Number of mineralization nodules: 14 days, alizarin red, n = 4
Method: as §1, §2, §3, §4
OB2 was inoculated into 6 well COSTOR culture plate at a density of 5×10^4 per well. 24 hours later, the above culture solution was replaced by culture solution containing medicines. Then the solution was changed every 48 hours. 14 days later, the cells were fixed and stained with alizarin red.

[4] = system: α-COLI mRNA in osteoblast (OB2); test: mRNA expression of α-COLI in osteoblasts by quantitative RT-PCR; type: cell-based, SD rat; conditions: 10^−3 mol/L; for level of α-COLI mRNA compared with control group: quantitative RT-PCR, in words
Method: 1. Cell Culture: The culture method of primary osteoblast was the same as that of the previous test. OB2 was inoculated at density of 1×10^4 cells/cm^2. […] Culture medium was changed every 48 hours and the medicines were added. Total RNA of the cells was extracted one week later.
2. Extraction of RNA: The cells were digested with 0.25% trypsin, and were centrifuged at 1000 rpm for 5 min to collect cell pellets. Total RNA was extracted with TRIzol reagent (Gibco Co.) method.
3. Reverse transcriptase polymerase chain reaction (RT-PCR): Access RT-PCR System kit (Promega) was used in the test, following the directions of the kit. The RT-PCR of the reaction mixture was performed in PCR analyzer (Bio-Rad Inc.) at 48° C. for 45 min. Inactivate enzyme at 94° C. for 2 min, then 30 cycles of PCR reaction: […] at 94° C. for degeneration, 1 min at 54° C. for annealing, 2 min at 72° C. for extension, and after the last cycle, 7 min at 72° C. for another extension. 9 μl PCR products were analyzed in 1.5% agarose gel electrophoresis. Then the bands were analyzed by image analysis system (Image Master VDS). Optical density value was calibrated by internal reference-Actin, and the calibration values were analyzed statistically.
4. Medicines: Each test medicine was formulated at the concentration of 0.1 mol/L, and sterilized by high pressure for later use. […] Calcium gluconate, Shanghai Huanghai Pharmaceutical Factory, 2.24 g was dissolved in 50 ml deionized water.

emasculated rat = conditions: in words

Row | Compound | A570 (X ± SD) (osteoblasts (OB2) [1]; test I, 10^−3 mol/L) | A570 (X ± SD) (osteoblasts (OB2) [1]; test I, 10^−5 mol/L) | A570 (X ± SD) (osteoblasts (OB2) [1]; test I, 10^−7 mol/L) | A570 (X ± SD) (osteoblasts (OB2) [1]; test I, 10^−9 mol/L) | A570 (X ± SD) (osteoblasts (OB2) [1]; test II, 10^−3 mol/L) | A570 (X ± SD) (osteoblasts (OB2) [1]; test II, 10^−5 mol/L) | A570 (X ± SD) (osteoblasts (OB2) [1]; test II, 10^−7 mol/L) | A570 (X ± SD) (osteoblasts (OB2) [1]; test II, 10^−9 mol/L) | A570 (X ± SD) (osteoblasts (OB2) [1]; test III, 10^−3 mol/L) | A570 (X ± SD) (osteoblasts (OB2) [1]; test III, 10^−5 mol/L) | A570 (X ± SD) (osteoblasts (OB2) [1]; test III, 10^−7 mol/L) | A570 (X ± SD) (osteoblasts (OB2) [1]; test III, 10^−9 mol/L) | ALP activity of osteoblast ([2]; Experiment 1) | ALP activity of osteoblast ([2]; Experiment 2) | ALP activity of osteoblast ([2]; Experiment 3) | Number of mineralization nodules (osteoblasts (OB2) [3]) | level of α-COLI mRNA compared with control group [4] | also measured
1 | Calcium gluconate | 0.381 ± 0.052 | 0.351 ± 0.039 | 0.267 ± 0.009*^& | 0.265 ± 0.025 | 0.359 ± 0.072**^& | 0.301 ± 0.051 | 0.268 ± 0.019*^& | 0.248 ± 0.017^& | 0.229 ± 0.021 | 0.242 ± 0.012 | 0.233 ± 0.021^$ | 0.229 ± 0.017 | 0.115 ± 0.009 U/mg of protein | 0.140 ± 0.016 U/mg of protein | 0.107 ± 0.025 U/mg of protein | 6.2 ± 2.588^& | no significant difference | Relative expression amount of α-COLI ([4]; one week, calibrated by β-Actin, X ± SD, n = 3): 1.2524 ± 0.377
2 | [Ca+2].[Cl-].[Cl-] [Calcium chloride] | 0.325 ± 0.052 | 0.277 ± 0.037 | 0.239 ± 0.005^& | 0.237 ± 0.005^& | 0.423 ± 0.028***^& | 0.324 ± 0.047^& | 0.268 ± 0.022^& | 0.292 ± 0.023 | 0.281 ± 0.014 | 0.268 ± 0.025^& | 0.229 ± 0.09 | 0.267 ± 0.016 | 0.119 ± 0.039 U/mg of protein | 0.122 ± 0.08 U/mg of protein | 0.102 ± 0.008 U/mg of protein | 6.4 ± 1.673^& | – | –
3 | calcium L-threonate | 0.458 ± 0.019 | 0.405 ± 0.085 | 0.401 ± 0.082 | 0.387 ± 0.087 | 0.486 ± 0.010 | 0.449 ± 0.041 | 0.371 ± 0.047 | 0.418 ± 0.047 | 0.386 ± 0.024 | 0.327 ± 0.034 | 0.338 ± 0.048 | 0.316 ± 0.073 | 0.156 ± 0.002 U/mg of protein | 0.208 ± 0.003 U/mg of protein | 0.164 ± 0.026 U/mg of protein | 12.0 ± 3.742 | increased significantly | effect on proliferation of osteoblast (osteoblasts (OB2) [1]; 10^−9-10^−3 mol/L, in words): promoting proliferation of osteoblast; ALP activity of OB2 versus control group ([2]; in words): higher than that of control group; number of mineralization nodules versus other groups (osteoblasts (OB2) [3]; within two weeks, in words): the largest; biomechanical parameters (emasculated rat): significantly increase; bone density (emasculated rat): significantly increase; content of bone calcium (emasculated rat): significantly increase
